What all share (type): functional
One test relates to HT-29. Briefly: Growth inhibition of Homo sapiens (human) HT-29 cells by MTT assay. For orientation: Tetrazolium assays rely on reduction of a dye to a coloured formazan, in cell work by metabolically active cells.
The subject of another test is SGC-7901. Description: Growth inhibition of Homo sapiens (human) SGC7901 cells by MTT assay.
The subject of a further test is HL-60. Description: Growth inhibition of Homo sapiens (human) HL60 cells by MTT assay.

`CCCCCCCCCCOc1ccc(-c2coc3cc(OC(F)F)cc(OCCCCCCCCCC)c3c2=O)cc1` [4',5-DI-N-DECOXY-7-GEM-DIFLUOROMETHYLENATED GENISTEIN]: the GI with HT-29 was found to be 14.26 µM; in the test on SGC-7901, 3.3 µM; with HL-60 it was 1.63 µM.

Take `COc1cc(O)c2c(=O)c(-c3ccc(O)cc3)coc2c1` [PRUNETIN]: the results for the GI in the test with HT-29, in the test with SGC-7901 and with HL-60 were 5.11 µM, 3.94 µM and 4.35 µM, respectively.

Regarding `COc1ccc(-c2coc3cc(OC)cc(O)c3c2=O)cc1` [4',7-DIMETHOXY-5-HYDROXYGENISTEIN], the GI in the test with HT-29 came to 4.18 µM; with SGC-7901, 7.78 µM; with HL-60 it was 5.14 µM.

Take `CCCCCCCCCCOc1ccc(-c2coc3cc(OCCCCCCCCCC)cc(O)c3c2=O)cc1` [4',7-DIDECYLOXY-5-HYDROXYGENISTEIN]: the figures for the GI with HT-29, in the test with SGC-7901 and in the test on HL-60 were 11.6 µM, 4.27 µM and 3.09 µM, respectively.

Regarding `COc1ccc(-c2coc3cc(OC(F)F)cc(OC)c3c2=O)cc1` [4',5-DIMETHOXY-7-GEM-DIFLUOROMETHYLENATED GENISTEIN], the GI stood at 9.83 µM in the test on HT-29, 6.41 µM in the test on SGC-7901 and 4.61 µM in the test with HL-60.

Regarding `CC(=O)Oc1cc(O)c2c(=O)c(-c3ccc(O)cc3)coc2c1` [7-ACETOXY-4',5-DIHYDROXYGENISTEIN], the GI in the test on HT-29 stood at 4.21 µM; in the test with SGC-7901, 8.11 µM; in the test on HL-60 it was 4.95 µM.

Take `CCOc1ccc(-c2coc3cc(OC(F)F)cc(OCC)c3c2=O)cc1` [4',5-DIETHOXY-7-GEM-DIFLUOROMETHYLENATED GENISTEIN]: the values for the GI in the test on HT-29, in the test on SGC-7901 and in the test on HL-60 were 11.2 µM, 5.51 µM and 1.75 µM, respectively.

As for `O=c1c(-c2ccc(OC(F)F)cc2)coc2cc(OC(F)F)cc(O)c12` [4',7-DI-GEM-DIFLUOROMETHYLENATED GENISTEIN], the GI worked out at 5.35 µM with HT-29, 5.54 µM in the test with SGC-7901 and 5.5 µM in the test with HL-60.

In the case of `C=CCOc1ccc(-c2coc3cc(OCC=C)cc(O)c3c2=O)cc1` [4',7-DIALLYLOXY-5-HYDROXYGENISTEIN], the GI in the test with HT-29 is 14.2 µM; in the test with SGC-7901, 6.51 µM; in the test on HL-60, 3.44 µM.

In the case of `O=c1c(-c2ccc(OCc3ccccc3)cc2)coc2cc(OC(F)F)cc(OCc3ccccc3)c12` [4',5-DIBENZYLOXY-7-GEM-DIFLUOROMETHYLENATED GENISTEIN], the results for the GI in the test with HT-29, in the test on SGC-7901 and in the test on HL-60 were 2.82 µM, 4.24 µM and 1.29 µM, respectively.

As to `CCCCCCCOc1ccc(-c2coc3cc(OC(F)F)cc(OCCCCCCC)c3c2=O)cc1` [4',5-DI-N-HEPTOXY-7-GEM-DIFLUOROMETHYLENATED GENISTEIN], the GI is 5.25 µM with HT-29, 3.39 µM with SGC-7901 and 1.41 µM in the test with HL-60.

Turning to `O=c1c(-c2ccc(O)cc2)coc2cc(OC(F)F)cc(O)c12` [7-GEM-DIFLUOROMETHYLENATED GENISTEIN], the GI turned out to be 4.56 µM in the test on HT-29, 4.59 µM with SGC-7901 and 3.53 µM in the test with HL-60.

As to `CCCCCCCCOc1ccc(-c2coc3cc(OC(F)F)cc(OCCCCCCCC)c3c2=O)cc1` [4',5-DI-N-OCTOXY-7-GEM-DIFLUOROMETHYLENATED GENISTEIN], the results for the GI in the test with HT-29, in the test on SGC-7901 and in the test with HL-60 were 1.86 µM, 1.64 µM and 0.47 µM, respectively.

As for `CCCOc1ccc(-c2coc3cc(OC(F)F)cc(OCCC)c3c2=O)cc1` [4',5-DI-N-PROPOXY-7-GEM-DIFLUOROMETHYLENATED GENISTEIN], the figures for the GI in the test on HT-29, in the test with SGC-7901 and with HL-60 were 2.5 µM, 2.15 µM and 0.54 µM, respectively.

Turning to `O=c1c(-c2ccc(O)cc2)coc2cc(O)cc(O)c12` [GENISTEIN], the GI with HT-29 stood at 4.11 µM; with SGC-7901, 5.78 µM; in the test on HL-60, 4.82 µM.

Consider `CCCCCCCCOc1ccc(-c2coc3cc(OCCCCCCCC)cc(O)c3c2=O)cc1` [4',7-DIOCTYLOXY-5-HYDROXYGENISTEIN], for which the GI in the test with HT-29 was found to be 10.8 µM; in the test on SGC-7901, 4.82 µM; with HL-60, 1.62 µM.

For the compound `CC(=O)Oc1ccc(-c2coc3cc(OC(C)=O)cc(O)c3c2=O)cc1` [4',7-DIACETOXY-5-HYDROXYGENISTEIN], the GI in the test on HT-29 was determined as 19.4 µM; in the test with SGC-7901, 11.24 µM; in the test on HL-60, 5.86 µM.

Source of the values: ChEMBL document CHEMBL3045088, “Synthesis and cytotoxic activity of genistein derivatives” (2010).
